# Laboratory results: the Kinase Knowledgebase extract (Sharma et al. 2016)
# Target: CDK2 (UniProt P24941)
# Experiment: Enzyme Assay
# Details: for inhibition: concentration not given here
Compound,Ki [nM],inhibition [%]
O=C1NC(=O)C2=C1c1cn(c3ncccc13)CCCCC(O)CCCCn1cc2c2cccnc21,682,57
O=C1CCCCn2cc(c3cccnc32)C2=C(C(=O)NC2=O)c2cn(c3ncccc23)CCCC1,1230,50
O=C1NC(=O)C2=C1c1cn(c3ncccc13)CCCC1=CC=C(CCCn3cc2c2cccnc23)S1,–,20
